US12441768B2, “Compositions and methods for treating endometriosis” (EndoMet Biosciences, Inc., priority 2018, dated 2025)
Read-outs that look alike come from different tables or passages of the source. Where a SMILES comes first, the peptide text is derived from it.

Target: T1, β-catenin (Homo sapiens, UniProt P35222)
T1 sequence (P35222 1-781): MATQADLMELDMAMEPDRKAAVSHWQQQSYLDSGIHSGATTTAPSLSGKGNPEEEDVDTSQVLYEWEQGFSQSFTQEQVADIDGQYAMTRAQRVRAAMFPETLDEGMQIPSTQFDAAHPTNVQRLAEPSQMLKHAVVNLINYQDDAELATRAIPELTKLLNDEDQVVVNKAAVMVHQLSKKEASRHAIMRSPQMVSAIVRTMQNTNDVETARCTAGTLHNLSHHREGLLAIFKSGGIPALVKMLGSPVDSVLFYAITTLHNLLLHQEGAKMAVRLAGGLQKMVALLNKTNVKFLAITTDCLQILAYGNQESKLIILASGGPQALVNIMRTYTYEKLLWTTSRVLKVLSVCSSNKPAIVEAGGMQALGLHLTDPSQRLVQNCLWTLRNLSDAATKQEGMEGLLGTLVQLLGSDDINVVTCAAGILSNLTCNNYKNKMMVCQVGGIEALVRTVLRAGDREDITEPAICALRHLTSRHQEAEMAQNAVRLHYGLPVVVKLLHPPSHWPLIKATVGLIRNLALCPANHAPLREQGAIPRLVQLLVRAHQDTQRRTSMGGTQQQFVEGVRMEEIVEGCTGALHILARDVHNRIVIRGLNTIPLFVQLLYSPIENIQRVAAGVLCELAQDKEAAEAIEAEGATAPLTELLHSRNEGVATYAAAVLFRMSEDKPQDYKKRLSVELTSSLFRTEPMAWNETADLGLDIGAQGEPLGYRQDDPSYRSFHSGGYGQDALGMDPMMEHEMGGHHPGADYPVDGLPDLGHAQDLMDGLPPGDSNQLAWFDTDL
Test: KD50 measurement using competitive fluorescence polarization (FP) with labelled TCF4
Assay type: binding
Details: fluorescence polarization, β-catenin
From the text: Fluorescence polarization (FP) is another method used to analyze protein-ligand interactions. This methodology measures the change in fluorescence light emitted by a labelled compound free vs. conjugated to another compound in solution. Upon binding of the fluorescent molecule to a complex, polarization increases because of limited rotation of the fluorescent tracer. Competitive FP is often utilized in drug screens as it is formatted for high throughput screens in a plate format. This immunoassay is performed by introducing a non-conjugated drug to compete for binding to the labelled competitor-ligand complex, leading to a reduction in polarization. TCF4 protein is utilized for the competitive assay as (1) this protein influences the full activation of the Wnt pathway and (2) shares homology with the β-catenin inhibitors. Exemplary methodology is described in Example 13. Data were analyzed and plotted in Microsoft Excel (Microsoft, Redmond, WA).
5 nM of labelled TCF4 protein was added to solution of 100 nM of β-catenin and incubated at room temperature in 96-well plates (Greiner 96 Flat transparent plates, Millipore Sigma, Carlsbad CA). Varying concentrations of β-catenin inhibitor candidate (SEQ ID NO: 404) were then added in a series of serial dilutions from 10 nM to 30 uM of inhibitor in different wells of the plate. The fluorescence polarization was read by Infinite M1000 (Tecan, Baldwin Park CA) at excitation wavelength of 470 nm and measured at emission wavelength of 520 nm. […] The experiments were performed three times and data were analyzed and plotted in Microsoft Excel (Microsoft, Redmond, WA).

Compound	β-Cat FP Hill slope	Kd (read-out: β-Cat FP KD) [nM]	Kd (β-Cat FP KD) [nM]
CC[C@H](C)[C@@H]1NC(=O)[C@@H](NC(=O)[C@H](CCC(N)=O)NC(=O)[C@H](C)N(C)C(=O)[C@H](Cc2c[nH]c3ccccc23)NC(C)=O)CCC(=O)NCCCC[C@@H](C(=O)N[C@@H](Cc2c[nH]cn2)C(=O)N[C@H](C(=O)N[C@@H](CCC(N)=O)C(=O)N[C@@H](CCCNC(=N)N)C(=O)N[C@H](C(=O)N[C@@H](Cc2c[nH]c3ccccc23)C(=O)NCC(N)=O)C(C)C)C2CCCCC2)NC(=O)[C@H](CC(=O)O)NC(=O)[C@H](CC(C)C)NC1=O [compound 426] (HELM PEPTIDE1{[ac].W.[meA].Q.E.I.L.D.K.H.[O=C([C@@H](N[*:1])C1CCCCC1)[*:2]].Q.R.V.W.G.[am]}$PEPTIDE1,PEPTIDE1,5:R3-9:R3$$$V2.0)	0.91	< 400	–
CCCCCCCCCCCC(=O)N[C@@H](Cc1c[nH]c2ccccc12)C(=O)N(C)[C@@H](C)C(=O)N[C@@H](CCC(N)=O)C(=O)N[C@@H](CO)C(=O)N[C@H](C(=O)N[C@@H](CC(C)C)C(=O)N[C@@H](CC(=O)O)C(=O)N[C@H]1CCC(=O)NCCCC[C@@H](C(=O)N[C@H](C(=O)N[C@@H](Cc2c[nH]c3ccccc23)C(=O)NCC(N)=O)C(C)C)NC(=O)[C@H](CCC(N)=O)NC(=O)[C@H](C(C)C)NC(=O)[C@H](Cc2c[nH]cn2)NC1=O)[C@@H](C)CC [compound 439] (HELM PEPTIDE1{[CCCCCCCCCCCC(=O)[*:2]].W.[meA].Q.S.I.L.D.E.H.V.Q.K.V.W.G.[am]}$PEPTIDE1,PEPTIDE1,9:R3-13:R3$$$V2.0)	–	< 400	–
CC[C@H](C)[C@@H]1NC(=O)[C@H](CC(C)C)NC(=O)[C@H](Cc2ccccc2)NC(=O)[C@H](Cc2c[nH]c3ccccc23)NC(=O)CCCCCNC(=O)C[C@@H](C(=O)O)NC(=O)[C@H](Cc2c[nH]c3ccccc23)NC(=O)[C@H](C)NC(=O)[C@H](CS)NC1=O [compound 245] (HELM PEPTIDE1{[O=C(CCCCCN[*:1])[*:2]].W.F.L.I.C.A.W.D}$PEPTIDE1,PEPTIDE1,1:R1-9:R3$$$V2.0)	1.28	< 400	–
CCCCCCCCCCCCCCCC(=O)N[C@@H](Cc1c[nH]c2ccccc12)C(=O)N(C)[C@@H](C)C(=O)N[C@@H](CCC(N)=O)C(=O)N[C@H]1CCCCNC(=O)C[C@@H](C(=O)N[C@@H](Cc2c[nH]cn2)C(=O)N[C@H](C(=O)N[C@@H](CCC(N)=O)C(=O)N[C@@H](C)C(=O)N[C@H](C(N)=O)C(C)C)C2CCCCC2)NC(=O)[C@H](CC(N)=O)NC(=O)[C@H](CC(C)C)NC(=O)[C@H]([C@@H](C)CC)NC1=O [compound 454] (HELM PEPTIDE1{[CCCCCCCCCCCCCCCC(=O)[*:2]].W.[meA].Q.K.I.L.N.D.H.[O=C([C@@H](N[*:1])C1CCCCC1)[*:2]].Q.A.V.[am]}$PEPTIDE1,PEPTIDE1,5:R3-9:R3$$$V2.0)	–	–	1000 to 10000
CCCCCCCCCCCC(=O)N[C@@H](Cc1c[nH]c2ccccc12)C(=O)N(C)[C@@H](C)C(=O)N[C@@H](CCC(N)=O)C(=O)N[C@@H](CO)C(=O)N[C@H](C(=O)N[C@@H](CC(C)C)C(=O)N[C@@H](CC(=O)O)C(=O)N[C@H]1CCC(=O)NCCCC[C@@H](C(=O)N[C@H](C(=O)N[C@@H](Cc2c[nH]c3ccccc23)C(N)=O)C(C)C)NC(=O)[C@H](CCC(N)=O)NC(=O)[C@H](C2CCCCC2)NC(=O)[C@H](Cc2c[nH]cn2)NC1=O)[C@@H](C)CC [compound 467] (HELM PEPTIDE1{[CCCCCCCCCCCC(=O)[*:2]].W.[meA].Q.S.I.L.D.E.H.[O=C([C@@H](N[*:1])C1CCCCC1)[*:2]].Q.K.V.W.[am]}$PEPTIDE1,PEPTIDE1,9:R3-13:R3$$$V2.0)	–	< 400	–
CCCCCCCCCCCC(=O)N[C@@H](Cc1c[nH]c2ccccc12)C(=O)N1CCC[C@H]1C(=O)N[C@@H](CCC(N)=O)C(=O)N[C@@H](CO)C(=O)N[C@H](C(=O)N[C@@H](CC(C)C)C(=O)N[C@@H](CC(=O)O)C(=O)N[C@H]1CCCCNC(=O)C[C@@H](C(=O)N[C@H](C(=O)N[C@@H](Cc2c[nH]c3ccccc23)C(N)=O)C(C)C)NC(=O)[C@H](CCC(N)=O)NC(=O)[C@H](C2CCCCC2)NC(=O)[C@H](Cc2c[nH]cn2)NC1=O)[C@@H](C)CC [compound 463] (HELM PEPTIDE1{[CCCCCCCCCCCC(=O)[*:2]].W.P.Q.S.I.L.D.K.H.[O=C([C@@H](N[*:1])C1CCCCC1)[*:2]].Q.D.V.W.[am]}$PEPTIDE1,PEPTIDE1,9:R3-13:R3$$$V2.0)	–	< 400	–
CC[C@H](C)[C@H](NC(=O)[C@H](CO)NC(=O)[C@H](CCC(N)=O)NC(=O)[C@H](C)N(C)C(=O)[C@H](Cc1c[nH]c2ccccc12)NC(C)=O)C(=O)N[C@@H](CC(C)C)C(=O)N[C@@H](CC(=O)O)C(=O)N[C@H]1CCC(=O)NCCCC[C@@H](C(=O)N[C@H](C(=O)N[C@@H](Cc2c[nH]c3ccccc23)C(N)=O)C(C)C)NC(=O)[C@H](CCC(N)=O)NC(=O)[C@H](C2CCCCC2)NC(=O)[C@H](Cc2c[nH]cn2)NC1=O [compound 466] (HELM PEPTIDE1{[ac].W.[meA].Q.S.I.L.D.E.H.[O=C([C@@H](N[*:1])C1CCCCC1)[*:2]].Q.K.V.W.[am]}$PEPTIDE1,PEPTIDE1,9:R3-13:R3$$$V2.0)	0.72	< 400	–
CCCCCCCCCCCC(=O)N[C@@H](Cc1c[nH]c2ccccc12)C(=O)N(C)[C@@H](C)C(=O)N[C@@H](CCC(N)=O)C(=O)N[C@H]1CCCCNC(=O)C[C@@H](C(=O)N[C@@H](Cc2c[nH]cn2)C(=O)N[C@H](C(=O)N[C@@H](CCC(N)=O)C(=O)N[C@@H](C)C(=O)N[C@H](C(N)=O)C(C)C)C2CCCCC2)NC(=O)[C@H](CC(N)=O)NC(=O)[C@H](CC(C)C)NC(=O)[C@H]([C@@H](C)CC)NC1=O [compound 453] (HELM PEPTIDE1{[CCCCCCCCCCCC(=O)[*:2]].W.[meA].Q.K.I.L.N.D.H.[O=C([C@@H](N[*:1])C1CCCCC1)[*:2]].Q.A.V.[am]}$PEPTIDE1,PEPTIDE1,5:R3-9:R3$$$V2.0)	–	–	1000 to 10000
CC[C@H](C)[C@@H]1NC(=O)[C@H](CC(C)C)NC(=O)[C@@H](NC(C)=O)CCCCNC(=O)C[C@@H](C(=O)O)NC(=O)[C@H](Cc2c[nH]c3ccccc23)NC(=O)[C@H](Cc2ccccc2)NC(=O)[C@H](C)NC1=O [compound 252] (HELM PEPTIDE1{[ac].K.L.I.A.F.W.D}$PEPTIDE1,PEPTIDE1,2:R3-8:R3$$$V2.0)	–	> 30000	–
CC[C@H](C)[C@H](NC(=O)[C@H](CC(C)C)NC(=O)[C@@H](NC(=O)[C@H](Cc1c[nH]c2ccccc12)NC(C)=O)[C@@H](C)CC)C(=O)N[C@@H](C)C(=O)N[C@@H](Cc1ccccc1)C(=O)N[C@@H](Cc1c[nH]c2ccccc12)C(=O)NCC(=O)O [compound 263] (Ac-WILIAFWG-OH)	3	400 to 1000	–
CC[C@H](C)[C@H](NC(=O)[C@@H](N)CC(C)C)C(=O)N[C@@H](CO)C(=O)N[C@@H](Cc1ccccc1)C(=O)N[C@@H](Cc1c[nH]c2ccccc12)C(=O)NCC(=O)O [compound 237] (H-LISFWG-OH)	0.72	> 30000	–
CC[C@H](C)[C@@H]1NC(=O)[C@@H](NC(=O)[C@H](CCC(N)=O)NC(=O)[C@H](C)N(C)C(=O)[C@H](Cc2c[nH]c3ccccc23)NC(C)=O)CCCCNC(=O)CC[C@@H](C(=O)N[C@@H](Cc2c[nH]cn2)C(=O)N[C@H](C(=O)N[C@@H](CCC(N)=O)C(=O)N[C@@H](CCCNC(=N)N)C(=O)N[C@H](C(=O)N[C@@H](Cc2c[nH]c3ccccc23)C(=O)NCC(N)=O)C(C)C)C(C)C)NC(=O)[C@H](CC(=O)O)NC(=O)[C@H](CC2CCCCC2)NC1=O [compound 407] (HELM PEPTIDE1{[ac].W.[meA].Q.K.I.[Cha].D.E.H.V.Q.R.V.W.G.[am]}$PEPTIDE1,PEPTIDE1,5:R3-9:R3$$$V2.0)	–	> 30000	–
